{"source": "ChEMBL document CHEMBL1156836", "about": "“4-Aryl-4-oxo-N-phenyl-2-aminylbutyramides as acetyl- and butyrylcholinesterase inhibitors. Preparation, anticholinesterase activity, docking study, and 3D structure-activity relationship based on molecular interaction fields” (Bioorg Med Chem, 2010)", "key": {"[1]": {"target": "Cholinesterase (Equus caballus) (UniProt P81908)", "sequence (P81908 whole entry)": "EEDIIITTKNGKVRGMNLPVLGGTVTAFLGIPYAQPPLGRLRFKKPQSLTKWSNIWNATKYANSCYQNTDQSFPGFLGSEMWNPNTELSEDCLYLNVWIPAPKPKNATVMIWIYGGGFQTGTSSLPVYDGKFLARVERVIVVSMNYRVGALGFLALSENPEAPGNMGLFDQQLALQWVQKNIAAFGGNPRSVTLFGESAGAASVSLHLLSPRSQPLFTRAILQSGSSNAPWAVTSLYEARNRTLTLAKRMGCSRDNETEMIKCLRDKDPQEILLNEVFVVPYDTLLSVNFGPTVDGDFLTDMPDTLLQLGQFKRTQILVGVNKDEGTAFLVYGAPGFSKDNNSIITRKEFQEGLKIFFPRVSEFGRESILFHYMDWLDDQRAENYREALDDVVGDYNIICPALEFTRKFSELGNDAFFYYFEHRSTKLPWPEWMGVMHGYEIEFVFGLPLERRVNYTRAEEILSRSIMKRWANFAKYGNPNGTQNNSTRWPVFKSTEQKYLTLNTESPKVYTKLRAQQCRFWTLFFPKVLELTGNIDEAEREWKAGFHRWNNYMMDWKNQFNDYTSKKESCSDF", "experiment": "Inhibition of horse serum BChE at 15 uM by Ellman's method"}, "Acetylcholinesterase [2]": {"target": "T1, Acetylcholinesterase (Electrophorus electricus, UniProt O42275)", "T1 sequence (O42275 whole entry)": "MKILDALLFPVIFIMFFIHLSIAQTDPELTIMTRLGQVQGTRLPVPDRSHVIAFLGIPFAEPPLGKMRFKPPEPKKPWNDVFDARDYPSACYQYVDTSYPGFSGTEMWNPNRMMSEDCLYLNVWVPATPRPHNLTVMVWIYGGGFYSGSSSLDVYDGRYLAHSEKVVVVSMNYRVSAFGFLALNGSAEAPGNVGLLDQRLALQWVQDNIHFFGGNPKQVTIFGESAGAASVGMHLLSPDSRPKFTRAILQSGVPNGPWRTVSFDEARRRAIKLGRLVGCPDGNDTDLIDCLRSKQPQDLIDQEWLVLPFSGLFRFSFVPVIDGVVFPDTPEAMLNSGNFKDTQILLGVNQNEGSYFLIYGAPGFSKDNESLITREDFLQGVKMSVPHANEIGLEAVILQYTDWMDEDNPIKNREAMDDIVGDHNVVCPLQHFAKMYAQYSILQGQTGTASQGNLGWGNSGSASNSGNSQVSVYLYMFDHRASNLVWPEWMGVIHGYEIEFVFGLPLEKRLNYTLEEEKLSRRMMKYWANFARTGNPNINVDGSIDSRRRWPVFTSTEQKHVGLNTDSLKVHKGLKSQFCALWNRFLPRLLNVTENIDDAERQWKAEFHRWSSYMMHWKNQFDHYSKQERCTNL", "description": "(§1) Inhibition of electric eel AChE by Ellman's method"}, "[3]": {"target": "Cholinesterase (Equus caballus) (UniProt P81908)", "experiment": "Inhibition of horse serum BChE at 40 uM by Ellman's method"}, "Cholinesterase [4]": {"target": "T2, Cholinesterase (Equus caballus, UniProt P81908)", "T2 sequence (P81908 whole entry)": "as the sequence (P81908 whole entry) above", "description": "(§2) Inhibition of horse serum BChE by Ellman's method"}, "Acetylcholinesterase [5]": {"target": "T1, Acetylcholinesterase", "remark": "listed apart in the source", "description": "as §1"}, "Cholinesterase [6]": {"target": "T2, Cholinesterase", "remark": "listed apart in the source", "description": "as §2"}, "[7]": {"target": "Cholinesterase (Equus caballus) (UniProt P81908)", "experiment": "Inhibition of horse serum BChE at 30 uM by Ellman's method"}, "[8]": {"target": "Cholinesterase (Equus caballus) (UniProt P81908)", "experiment": "Inhibition of horse serum BChE at 70 uM by Ellman's method"}, "[9]": {"target": "Cholinesterase (Equus caballus) (UniProt P81908)", "experiment": "Mixed type inhibition of horse serum BChE by Ellman's method"}, "Cholinesterase [10]": {"target": "T2, Cholinesterase", "experiment": "Inhibition of horse serum BChE by Lineweaver-Burke plot"}, "[11]": {"target": "Acetylcholinesterase (Electrophorus electricus) (UniProt O42275)", "sequence (O42275 24-633 limits assumed)": "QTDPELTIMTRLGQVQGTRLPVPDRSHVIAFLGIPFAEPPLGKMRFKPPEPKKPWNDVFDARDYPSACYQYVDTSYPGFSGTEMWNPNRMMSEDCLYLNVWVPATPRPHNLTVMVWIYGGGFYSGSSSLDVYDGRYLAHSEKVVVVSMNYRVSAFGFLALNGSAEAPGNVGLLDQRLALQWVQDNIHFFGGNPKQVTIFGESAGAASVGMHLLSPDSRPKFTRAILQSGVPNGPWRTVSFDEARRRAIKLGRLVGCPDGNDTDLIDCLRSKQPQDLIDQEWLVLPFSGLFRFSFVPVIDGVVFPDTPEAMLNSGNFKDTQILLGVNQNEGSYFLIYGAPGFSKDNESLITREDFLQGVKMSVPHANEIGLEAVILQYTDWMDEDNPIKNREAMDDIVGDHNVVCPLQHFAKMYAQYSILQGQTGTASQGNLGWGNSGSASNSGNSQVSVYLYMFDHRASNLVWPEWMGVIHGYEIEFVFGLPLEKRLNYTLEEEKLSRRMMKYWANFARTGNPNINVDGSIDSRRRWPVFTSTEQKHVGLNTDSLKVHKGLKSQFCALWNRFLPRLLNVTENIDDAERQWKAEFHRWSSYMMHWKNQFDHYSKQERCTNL", "experiment": "Mixed type inhibition of electric eel AChE by Ellman's method"}, "[12]": {"target": "Cholinesterase (Equus caballus) (UniProt P81908)", "experiment": "Inhibition of horse serum BChE at 100 uM by Ellman's method"}, "[13]": {"target": "Acetylcholinesterase (Electrophorus electricus) (UniProt O42275)", "experiment": "Inhibition of electric eel AChE at 100 uM by Ellman's method"}}, "note": "Calls of active or inactive are those of the source. The rule behind the calls is not given here.", "data": [{"smiles": "O=C(CC(C(=O)Nc1ccccc1)N1CCCCC1)c1ccc2c(c1)CCCC2", "note": "(racemic)", "values": [{"measurement": "inhibition", "setting": "[1]", "value": 21.5, "unit": "%"}]}, {"smiles": "O=C(CC(C(=O)Nc1ccccc1)N1CCOCC1)c1ccc2c(c1)CCCC2", "note": "(racemic)", "values": [{"measurement": "IC50", "setting": "Acetylcholinesterase [2]", "value": "> 30", "unit": "µM"}, {"measurement": "inhibition", "setting": "[3]", "value": 13, "unit": "%"}]}, {"smiles": "O=C(CC(C(=O)Nc1ccccc1)n1ccnc1)c1ccc(Cl)cc1", "note": "(racemic)", "values": [{"measurement": "IC50", "setting": "Cholinesterase [4]", "value": "ND(Insoluble)"}, {"measurement": "IC50", "setting": "Acetylcholinesterase [5]", "value": "ND(Insoluble)"}]}, {"smiles": "COc1ccc(C(=O)CC(C(=O)Nc2ccccc2)n2ccnc2)cc1", "note": "(racemic)", "values": [{"measurement": "IC50", "setting": "Cholinesterase [6]", "value": 30.4, "unit": "µM"}, {"measurement": "IC50", "setting": "Acetylcholinesterase [2]", "value": 7.85, "unit": "µM"}]}, {"smiles": "CC(C)c1ccc(C(=O)CC(C(=O)Nc2ccccc2)n2ccnc2)cc1", "note": "(racemic)", "values": [{"measurement": "inhibition", "setting": "[7]", "value": 10, "unit": "%"}]}, {"smiles": "CC(C)c1ccc(C(=O)CC(NCCCCCCCCNC(CC(=O)c2ccc(C(C)C)cc2)C(=O)Nc2ccccc2)C(=O)Nc2ccccc2)cc1", "note": "(mixture of isomers)", "values": [{"measurement": "IC50", "setting": "Cholinesterase [4]", "value": "ND(Insoluble)"}, {"measurement": "IC50", "setting": "Acetylcholinesterase [5]", "value": "ND(Insoluble)"}]}, {"smiles": "Cc1ccc(C)c(C(=O)CC(C(=O)Nc2ccccc2)n2ccnc2)c1", "note": "(racemic)", "values": [{"measurement": "inhibition", "setting": "[8]", "value": 42, "unit": "%"}, {"measurement": "IC50", "setting": "Acetylcholinesterase [2]", "value": 27.9, "unit": "µM"}]}, {"smiles": "CC(C)c1ccc(C(=O)CC(C(=O)Nc2ccccc2)N2CCOCC2)c(C(C)C)c1", "note": "(racemic)", "values": [{"measurement": "inhibition", "setting": "[9]", "value": "Active"}, {"measurement": "Ki", "setting": "Cholinesterase [10]", "value": 3.18, "unit": "µM"}, {"measurement": "IC50", "setting": "Cholinesterase [6]", "value": 2.48, "unit": "µM"}, {"measurement": "inhibition", "setting": "[11]", "value": "Active"}]}, {"smiles": "COc1ccc(C(=O)CC(NCCCCCCCCNC(CC(=O)c2ccc(OC)cc2)C(=O)Nc2ccccc2)C(=O)Nc2ccccc2)cc1", "note": "(mixture of isomers)", "values": [{"measurement": "IC50", "setting": "Cholinesterase [4]", "value": "ND(Insoluble)"}, {"measurement": "IC50", "setting": "Acetylcholinesterase [5]", "value": "ND(Insoluble)"}]}, {"smiles": "Cc1ccc(C)c(C(=O)CC(C(=O)Nc2ccccc2)N2CCCCC2)c1", "note": "(racemic)", "values": [{"measurement": "IC50", "setting": "Cholinesterase [6]", "value": 17.2, "unit": "µM"}, {"measurement": "IC50", "setting": "Acetylcholinesterase [2]", "value": "> 10", "unit": "µM"}]}, {"smiles": "O=C(CC(C(=O)Nc1ccccc1)N1CCOCC1)c1ccccc1", "note": "(racemic)", "values": [{"measurement": "inhibition", "setting": "[12]", "value": 21.6, "unit": "%"}, {"measurement": "IC50", "setting": "Acetylcholinesterase [2]", "value": "> 100", "unit": "µM"}]}, {"smiles": "O=C(CC(C(=O)Nc1ccccc1)N1CCCCC1)c1ccc(Cl)cc1", "note": "(racemic)", "values": [{"measurement": "IC50", "setting": "Cholinesterase [4]", "value": "ND(Insoluble)"}, {"measurement": "IC50", "setting": "Acetylcholinesterase [5]", "value": "ND(Insoluble)"}]}, {"smiles": "Cc1ccc(C)c(C(=O)CC(C(=O)Nc2ccccc2)N2CCOCC2)c1", "note": "(racemic)", "values": [{"measurement": "IC50", "setting": "Cholinesterase [6]", "value": 34.1, "unit": "µM"}, {"measurement": "IC50", "setting": "Acetylcholinesterase [2]", "value": "> 100", "unit": "µM"}]}, {"smiles": "Cc1ccc(C)c(C(=O)CC(NCCCCCCCCNC(CC(=O)c2cc(C)ccc2C)C(=O)Nc2ccccc2)C(=O)Nc2ccccc2)c1", "note": "(mixture of isomers)", "values": [{"measurement": "IC50", "setting": "Cholinesterase [4]", "value": "ND(Insoluble)"}, {"measurement": "IC50", "setting": "Acetylcholinesterase [5]", "value": "ND(Insoluble)"}]}, {"smiles": "O=C(CC(C(=O)Nc1ccccc1)N1CCCCC1)c1ccccc1", "note": "(racemic)", "values": [{"measurement": "inhibition", "setting": "[12]", "value": 34.8, "unit": "%"}, {"measurement": "IC50", "setting": "Acetylcholinesterase [2]", "value": "> 100", "unit": "µM"}]}, {"smiles": "O=C(CC(C(=O)Nc1ccccc1)N1CCOCC1)c1ccc(Cl)cc1", "note": "(racemic)", "values": [{"measurement": "IC50", "setting": "Cholinesterase [4]", "value": "ND(Insoluble)"}, {"measurement": "IC50", "setting": "Acetylcholinesterase [5]", "value": "ND(Insoluble)"}]}, {"smiles": "O=C(CC(NCCCCCCCCNC(CC(=O)c1ccc(Cl)cc1)C(=O)Nc1ccccc1)C(=O)Nc1ccccc1)c1ccc(Cl)cc1", "note": "(mixture of isomers)", "values": [{"measurement": "IC50", "setting": "Cholinesterase [4]", "value": "ND(Insoluble)"}, {"measurement": "IC50", "setting": "Acetylcholinesterase [5]", "value": "ND(Insoluble)"}]}, {"smiles": "CC(C)c1ccc(C(=O)CC(C(=O)Nc2ccccc2)N2CCCCC2)cc1", "note": "(racemic)", "values": [{"measurement": "IC50", "setting": "Cholinesterase [6]", "value": 7.06, "unit": "µM"}]}, {"smiles": "O=C(CC(C(=O)Nc1ccccc1)n1ccnc1)c1ccc2c(c1)CCCC2", "note": "(racemic)", "values": [{"measurement": "inhibition", "setting": "[3]", "value": 17, "unit": "%"}]}, {"smiles": "COc1ccc(C(=O)CC(C(=O)Nc2ccccc2)N2CCOCC2)cc1", "note": "(racemic)", "values": [{"measurement": "inhibition", "setting": "[13]", "value": 38.7, "unit": "%"}, {"measurement": "IC50", "setting": "Cholinesterase [6]", "value": "> 100", "unit": "µM"}]}, {"smiles": "CC(C)c1ccc(C(=O)CC(C(=O)Nc2ccccc2)N2CCCCC2)c(C(C)C)c1", "note": "(racemic)", "values": [{"measurement": "inhibition", "setting": "[1]", "value": 39.9, "unit": "%"}]}, {"smiles": "COc1ccc(C(=O)CC(C(=O)Nc2ccccc2)N2CCCCC2)cc1", "note": "(racemic)", "values": [{"measurement": "IC50", "setting": "Cholinesterase [6]", "value": "> 40", "unit": "µM"}, {"measurement": "IC50", "setting": "Acetylcholinesterase [2]", "value": "> 10", "unit": "µM"}]}, {"smiles": "O=C(CC(NCCCCCCCCNC(CC(=O)c1ccc2c(c1)CCCC2)C(=O)Nc1ccccc1)C(=O)Nc1ccccc1)c1ccc2c(c1)CCCC2", "note": "(mixture of isomers)", "values": [{"measurement": "IC50", "setting": "Cholinesterase [4]", "value": "ND(Insoluble)"}, {"measurement": "IC50", "setting": "Acetylcholinesterase [5]", "value": "ND(Insoluble)"}]}, {"smiles": "CC(C)c1ccc(C(=O)CC(C(=O)Nc2ccccc2)n2ccnc2)c(C(C)C)c1", "note": "(racemic)", "values": [{"measurement": "inhibition", "setting": "[9]", "value": "Active"}, {"measurement": "IC50", "setting": "Cholinesterase [6]", "value": "> 20", "unit": "µM"}, {"measurement": "inhibition", "setting": "[11]", "value": "Active"}]}, {"smiles": "CC(C)c1ccc(C(=O)CC(NCCCCCCCCNC(CC(=O)c2ccc(C(C)C)cc2C(C)C)C(=O)Nc2ccccc2)C(=O)Nc2ccccc2)c(C(C)C)c1", "note": "(mixture of isomers)", "values": [{"measurement": "IC50", "setting": "Cholinesterase [4]", "value": "ND(Insoluble)"}, {"measurement": "IC50", "setting": "Acetylcholinesterase [5]", "value": "ND(Insoluble)"}]}, {"smiles": "CC(C)c1ccc(C(=O)CC(C(=O)Nc2ccccc2)N2CCOCC2)cc1", "note": "(racemic)", "values": [{"measurement": "IC50", "setting": "Acetylcholinesterase [2]", "value": "> 100", "unit": "µM"}, {"measurement": "inhibition", "setting": "[3]", "value": 27.2, "unit": "%"}]}]}
